According to PubChem BioAssay (NCI):
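Here, GI50 denotes the concentration required for 50% inhibition of growth. TGI denotes the concentration required for complete inhibition of growth.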

Assays:
Assay in all cases: inhibition of tumour cell growth, NCI panel, 384-well format
MDA-MB-468 breast = tested on: MDA-MB-468 breast
SNB-75 CNS = tested on: SNB-75 CNS
SF-268 CNS = tested on: SF-268 CNS
K-562 leukemia = tested on: K-562 leukemia
T-47D breast = tested on: T-47D breast
OVCAR-8 ovarian = tested on: OVCAR-8 ovarian
SNB-19 CNS = tested on: SNB-19 CNS
UACC-62 melanoma = tested on: UACC-62 melanoma
SN12C renal = tested on: SN12C renal
SR leukemia = tested on: SR leukemia
COLO 205 colon = tested on: COLO 205 colon
HS 578T breast = tested on: HS 578T breast
HL-60(TB) leukemia = tested on: HL-60(TB) leukemia
SK-MEL-28 melanoma = tested on: SK-MEL-28 melanoma
MALME-3M melanoma = tested on: MALME-3M melanoma
A549 NSCLC = tested on: A549 NSCLC
NCI-H522 lung = tested on: NCI-H522 lung
CAKI-1 renal = tested on: CAKI-1 renal
SF-539 CNS = tested on: SF-539 CNS
UO-31 renal = tested on: UO-31 renal
SF-295 CNS = tested on: SF-295 CNS
MCF7 breast = tested on: MCF7 breast
MDA-MB-231 breast = tested on: MDA-MB-231 breast
OVCAR-3 ovarian = tested on: OVCAR-3 ovarian
A498 renal = tested on: A498 renal
PC-3 prostate = tested on: PC-3 prostate
HCC-2998 colon = tested on: HCC-2998 colon
IGROV1 ovarian = tested on: IGROV1 ovarian
HOP-62 NSCLC = tested on: HOP-62 NSCLC

O=c1cc(-c2cccc3c2Sc2ccccc2S3)oc(N2CCOCC2)c1
GI50 (MDA-MB-468 breast): 8.61 µM
TGI (MDA-MB-468 breast): 20.7 µM
GI50 (SNB-75 CNS): 10.7 µM
TGI (SNB-75 CNS): 22.7 µM
GI50 (SF-268 CNS): 12.1 µM
TGI (SF-268 CNS): 24.7 µM
GI50 (K-562 leukemia): 5.04 µM
TGI (K-562 leukemia): 16.3 µM
GI50 (T-47D breast): 10.1 µM
TGI (T-47D breast): 21.8 µM
GI50 (OVCAR-8 ovarian): 12.8 µM
TGI (OVCAR-8 ovarian): 25.7 µM
GI50 (SNB-19 CNS): 13.9 µM
TGI (SNB-19 CNS): 26.9 µM
GI50 (UACC-62 melanoma): 10.4 µM
TGI (UACC-62 melanoma): 22.3 µM
GI50 (SN12C renal): 11.5 µM
TGI (SN12C renal): 23.8 µM
GI50 (SR leukemia): 2530 nM
TGI (SR leukemia): 4.95 µM
GI50 (COLO 205 colon): 15.4 µM
TGI (COLO 205 colon): 28.9 µM
GI50 (HS 578T breast): 6.58 µM
TGI (HS 578T breast): 18.5 µM
GI50 (HL-60(TB) leukemia): 1520 nM
TGI (HL-60(TB) leukemia): 3.17 µM
GI50 (SK-MEL-28 melanoma): 10.4 µM
TGI (SK-MEL-28 melanoma): 22.2 µM
GI50 (MALME-3M melanoma): 6.31 µM
TGI (MALME-3M melanoma): 19.2 µM
GI50 (A549 NSCLC): 11.4 µM
TGI (A549 NSCLC): 23.8 µM
GI50 (NCI-H522 lung): 12.4 µM
TGI (NCI-H522 lung): 24.9 µM
GI50 (CAKI-1 renal): 5.15 µM
TGI (CAKI-1 renal): 18.4 µM
GI50 (SF-539 CNS): 12.2 µM
TGI (SF-539 CNS): 24.9 µM
GI50 (UO-31 renal): 6.91 µM
TGI (UO-31 renal): 20.2 µM
GI50 (SF-295 CNS): 13.2 µM
TGI (SF-295 CNS): 26.1 µM
GI50 (MCF7 breast): 6.98 µM
TGI (MCF7 breast): 19.7 µM
GI50 (MDA-MB-231 breast): 11.3 µM
TGI (MDA-MB-231 breast): 23.5 µM
GI50 (OVCAR-3 ovarian): 12.7 µM
TGI (OVCAR-3 ovarian): 25.5 µM
GI50 (A498 renal): 4.26 µM
TGI (A498 renal): 15.3 µM
GI50 (PC-3 prostate): 6.39 µM
TGI (PC-3 prostate): 19.3 µM
GI50 (HCC-2998 colon): 2980 nM
TGI (HCC-2998 colon): 11.6 µM
GI50 (IGROV1 ovarian): 7.75 µM
TGI (IGROV1 ovarian): 20.2 µM
GI50 (HOP-62 NSCLC): 13.6 µM
TGI (HOP-62 NSCLC): 26.6 µM
